Results from publication PMC8557866, “Novel Small Molecule Growth Inhibitor Affecting Bacterial Outer Membrane Reduces Extraintestinal Pathogenic Escherichia coli (ExPEC) Infection in Avian Model” (Microbiology Spectrum, 2021).
≈ marks a conversion by molar mass, not a printed value. Like-named read-outs stand apart in the source and are kept apart here.

How the values were obtained:
[1] = system: LptE; assay: LptD/E immunoblot analysis; type: cell-based, Escherichia coli; details: vs untreated APEC
Method: For immunoblot analysis, total membrane proteins (25 μg) resolved by SDS-PAGE under nonreducing (in the absence of β-mercaptoethanol) conditions ([37]) as described above were electrotransferred onto an Immun-Blot polyvinylidene difluoride (PVDF) membrane (Bio-Rad) and probed for LptD or LptE using anti-LptD (1:20,000) and anti-LptE (1:30,000) polyclonal rabbit antibodies (GenScript) and goat anti-rabbit IgG horseradish peroxidase (HRP)-conjugated secondary antibody (Sigma-Aldrich). Anti-LptD and anti-LptE antibodies were generated at GenScript using keyhole limpet hemocyanin (KLH)-conjugated peptides as the antigens (LptD epitope, […], and LptE epitope, […]). The epitopes were selected using the OptimumAntigen design tool (GenScript). The transferred membrane was developed with Clarity Western ECL substrate (Bio-Rad) and visualized in a FluorChem Q imager (ProteinSimple).

[2] = system: APEC; assay: microbe, parasite or virus in culture; type: cell-based, Escherichia coli
[3] = Pharmacokinetic study in plasma of chickens (LC-MS); type: in vivo
Method: Details of the methods are included in the supplemental material. page 3: previously(3). […] The mixtures were then incubated at […] for 30 min and proteins were removed by ultracentrifugation at 13,000xg for 25 min at 2 °C.

[4] = system: APEC O78; assay: Gene expression analysis by RT-qPCR in GI-7-treated APEC; type: cell-based, Escherichia coli; details: 4 h treatment, vs untreated APEC
Method: We also quantitated the expression of other genes essential for maintaining OM integrity (bamA, mlaA, lolB, and pbgA) ([21]). […] An APEC O78 culture treated with 1% DMSO was used as a control. Total RNA was extracted using the RNeasy minikit (Qiagen), and 5 μg of purified RNA was used to synthesize cDNA using the RT^2 first strand kit (Qiagen). The RT-qPCR was performed using Maxima SYBR green/ROX qPCR master mix (Thermo Fisher) in a RealPlex^2 Mastercycler (Eppendorf) with a 55°C annealing temperature. The primers (Table S3) were designed using the PrimerQuest tool and obtained from Integrated DNA Technologies (IDT). The data were normalized to the housekeeping gene encoding glyceraldehyde-3-phosphate dehydrogenase (GAPDH), and relative fold changes were calculated using the cycle threshold (ΔΔCT) method ([79]). Two independent experiments were conducted.

[5] = system: APEC O78; details: for Mortality reduction compared to PC group: 7 days, PC mortality 60%; for Cumulative lesion score: PC 8.8; for Survival of chickens: P < 0.05, log-rank test
Method: Prior to selection of these doses, we conducted a preliminary study using 20-mg/liter, 200-mg/liter, and 500-mg/liter doses (doses similar to those of antibiotics currently used in the poultry industry). […] The experiment was conducted using commercial broiler chickens (n = 11/group) as described above following procedures described in Fig. S1A. […] The amount of drinking water was adjusted daily based on the age and requirement of chickens (https://www.thepoultrysite.com/articles/broiler-water-consumption). The clinical signs and mortality, lesion scores, and APEC loads were determined as described above.

[6] = system: APEC O78; design: method as in PMID 30333507; details: cited from earlier work
[7] = system: APEC; details: 10^9 CFU with 2× MBC or 15 passages at 0.75× MIC; cited from earlier work
[8] = system: APEC; assay: LPS analysis in outer membrane of APEC; type: cell-based, Escherichia coli; details: vs untreated APEC; total carbohydrate assay P < 0.0001
Method: Extracted LPS (normalized based on the OD600 before extraction) was separated on a 4-to-20% gradient SDS-PAGE gel and stained with Coomassie blue R-250 to visualize the LPS levels ([83]). In addition, LPS was also quantitated using a total carbohydrate assay kit (Cell Biolabs, Inc., San Diego, CA) following the manufacturer’s protocol. Two independent experiments with six replicates in each experiment were performed.

[9] = 20 mg/L in drinking water, vs PC
[10] = 20 mg/liter in drinking water, vs PC
[11] = 40 mg/L in drinking water, vs PC
[12] = 40 mg/liter in drinking water, vs PC
[13] = 60 mg/L in drinking water, vs PC
[14] = 60 mg/liter in drinking water, vs PC

In the case of `COc1ccc(CNCc2cccc(C(F)(F)F)c2)cc1OCC(O)CN1CCCC1` (centres unmarked) [GI-7], the “LptE level (immunoblot)” value [1] is reported as “decreased the LptE level”, the Resistance in vivo ([2]; APEC isolated from chickens treated with GI-7) is reported as “no in vivo resistance” and the MBC ([2]; Escherichia coli) is reported as 50 µM (≈ 21.9 µg/mL). It also gave an MIC ([2]; Escherichia coli) of 25 µM (≈ 11 µg/mL), a Cmax ([3]; commercial broiler, plasma, po, mean ± standard deviation, read-out: Peak plasma concentration (Cmax)) of 434 ± 388 ng/mL and a Tmax ([3]; commercial broiler, plasma, po, postadministration, read-out: Time to maximum concentration (Tmax)) of 8 h. For the same compound, the Half-life ([3]; comparison in words) was “shorter half-life than SDM”, the “Cumulative accumulation in plasma after repeated administration” value ([3]; data not shown) was “no cumulative accumulation” and the Excretion ([3]; plasma) was no more than 24 h. The “Absorption (time at which absorbed)” value ([3]; plasma, drinking water delivery) was 0.5 h, the “Downregulation of lptD gene expression” value ([4]; ~50% growth inhibition) was 12.90 fold and the “Downregulation of bamA gene expression” value [4] was 7.72 fold. For the same compound, the “Downregulation of lolB gene expression” value [4] was 1.92 fold, the “Downregulation of lptA gene expression” value [4] was 5.13 fold and the “Downregulation of lptC gene expression” value [4] was 4.99 fold. For the same compound, the “Downregulation of lptE gene expression” value [4] was 5.39 fold, the “Downregulation of mlaA gene expression” value [4] was 9.94 fold and the “Downregulation of pbgA gene expression” value [4] was 5.75 fold. For the same compound, the “Mean APEC load, Heart” value ([5]; 20 mg/L in drinking water) was 6.7 Log CFU/g tissues, the “Mean APEC load, Kidney” value ([5]; 20 mg/L in drinking water) was 5.9 Log CFU/g tissues and the “Mean APEC load, Liver” value ([5]; 20 mg/L in drinking water) was 6.0 Log CFU/g tissues. The “Mean APEC load, Lung” value ([5]; 20 mg/L in drinking water) was 6.3 Log CFU/g tissues, the “log reduction in APEC load, Heart” value [5, 9] was -0.2 Log CFU/g tissues and the “log reduction in APEC load, Kidney” value [5, 9] was 0.2 Log CFU/g tissues. The “log reduction in APEC load, Liver” value [5, 9] was -0.1 Log CFU/g tissues, the “log reduction in APEC load, Lung” value [5, 9] was -0.4 Log CFU/g tissues and the “Mean lesion score in Air sacs” value ([5]; 20 mg/liter in drinking water) was 2.3. For the same compound, the “Mean lesion score in Heart” value ([5]; 20 mg/liter in drinking water) was 2.7, the “Mean lesion score in Liver” value ([5]; 20 mg/liter in drinking water) was 2 and the “Mean lesion score in Lung” value ([5]; 20 mg/liter in drinking water) was 1.8. For the same compound, the “Mortality reduction compared to PC group” value ([5]; 20 mg/liter in drinking water) was 10%, the Cumulative lesion score ([5]; 20 mg/liter in drinking water) was 8.8 and the “% reduction in severity, Air sacs lesions” value [5, 10] was 1.4%. For the same compound, the “% reduction in severity, Heart lesions” value [5, 10] was −9.5%, the “% reduction in severity, Liver lesions” value [5, 10] was 0% and the “% reduction in severity, Lung lesions” value [5, 10] was 10%. The “Mean APEC load, Heart” value ([5]; 40 mg/L in drinking water) was 4.4 Log CFU/g tissues, the “Mean APEC load, Kidney” value ([5]; 40 mg/L in drinking water) was 4.2 Log CFU/g tissues and the “Mean APEC load, Liver” value ([5]; 40 mg/L in drinking water) was 3.9 Log CFU/g tissues. The “Mean APEC load, Lung” value ([5]; 40 mg/L in drinking water) was 4.0 Log CFU/g tissues, the “log reduction in APEC load, Heart” value [5, 11] was 2.0 Log CFU/g tissues and the “log reduction in APEC load, Kidney” value [5, 11] was 1.9 Log CFU/g tissues. For the same compound, the “log reduction in APEC load, Liver” value [5, 11] was 2.0 Log CFU/g tissues, the “log reduction in APEC load, Lung” value [5, 11] was 2.0 Log CFU/g tissues and the “Reduction of severity of APEC lesions in internal organs” value ([5]; 40 mg/liter and 60 mg/liter in drinking water, vs PC) was “up to 36.3%”. The “Mean lesion score in Heart” value ([5]; 40 mg/liter in drinking water) was 2.6, the “Mean lesion score in Liver” value ([5]; 40 mg/liter in drinking water) was 2 and the “Mortality reduction compared to PC group” value ([5]; 40 mg/liter in drinking water) was 50%. The Survival of chickens ([5]; 40 mg/liter in drinking water) was “prolonged the survival”, the Cumulative lesion score ([5]; 40 mg/liter in drinking water) was 7.7 and the “% reduction in severity, Heart lesions” value [5, 12] was −5.4%. For the same compound, the “% reduction in severity, Liver lesions” value [5, 12] was 0%, the “% reduction in severity, Lung lesions” value [5, 12] was 30% and the “Mean APEC load, Heart” value ([5]; 60 mg/L in drinking water) was 4.0 Log CFU/g tissues. The “Mean APEC load, Kidney” value ([5]; 60 mg/L in drinking water) was 3.6 Log CFU/g tissues, the “Mean APEC load, Liver” value ([5]; 60 mg/L in drinking water) was 3.5 Log CFU/g tissues and the “Mean APEC load, Lung” value ([5]; 60 mg/L in drinking water) was 4.4 Log CFU/g tissues. The “log reduction in APEC load, Heart” value [5, 13] was 2.4 Log CFU/g tissues, the “log reduction in APEC load, Kidney” value [5, 13] was 2.5 Log CFU/g tissues and the “log reduction in APEC load, Liver” value [5, 13] was 2.4 Log CFU/g tissues. For the same compound, the “log reduction in APEC load, Lung” value [5, 13] was 1.6 Log CFU/g tissues, the “Mean lesion score in Heart” value ([5]; 60 mg/liter in drinking water) was 2.1 and the “Mean lesion score in Lung” value ([5]; 60 mg/liter in drinking water) was 1.4. The “Mortality reduction compared to PC group” value ([5]; 60 mg/liter in drinking water) was 50.9%, the Survival of chickens ([5]; 60 mg/liter in drinking water) was “prolonged the survival” and the Cumulative lesion score ([5]; 60 mg/liter in drinking water) was 6.6. For the same compound, the “% reduction in severity, Air sacs lesions” value [5, 14] was 33.8%, the “% reduction in severity, Heart lesions” value [5, 14] was 15.2% and the “% reduction in severity, Liver lesions” value [5, 14] was 13.6%. For the same compound, the “% reduction in severity, Lung lesions” value [5, 14] was 36.3%, the “Anti-APEC effect compared to treatment at 60 mg/liter” value ([5]; 80 mg/liter, follow-up study, data not shown) was “did not result in a better anti-APEC effect” and the MIC [6] was 25 µM (≈ 11 µg/mL). The Resistance in vitro [7] was “no resistance” and the “LPS level in OM of APEC” value [8] was “lower level of LPS”.
